Assay results taken from patent publication US20230024302A1, “2,3,5-TRISUBSTITUTED PYRAZOLO[1,5-A]PYRIMIDINE COMPOUNDS” (Arcus Biosciences, Inc., priority 2019, published 2023).
Read-outs that look alike come from different tables or passages of the source.

Columns and labels:
PI3Kγ (p120γ) = molecular target: T1, PI3Kγ (p120γ) (Homo sapiens, UniProt P48736); test: Inhibition of PI3K kinase activity (ADP Glo), PI3Kγ; conditions: read-out: biochemical potency (PI3Kγ IC50)
T1 construct: purchased Promega V1761
T1 sequence (P48736 whole entry): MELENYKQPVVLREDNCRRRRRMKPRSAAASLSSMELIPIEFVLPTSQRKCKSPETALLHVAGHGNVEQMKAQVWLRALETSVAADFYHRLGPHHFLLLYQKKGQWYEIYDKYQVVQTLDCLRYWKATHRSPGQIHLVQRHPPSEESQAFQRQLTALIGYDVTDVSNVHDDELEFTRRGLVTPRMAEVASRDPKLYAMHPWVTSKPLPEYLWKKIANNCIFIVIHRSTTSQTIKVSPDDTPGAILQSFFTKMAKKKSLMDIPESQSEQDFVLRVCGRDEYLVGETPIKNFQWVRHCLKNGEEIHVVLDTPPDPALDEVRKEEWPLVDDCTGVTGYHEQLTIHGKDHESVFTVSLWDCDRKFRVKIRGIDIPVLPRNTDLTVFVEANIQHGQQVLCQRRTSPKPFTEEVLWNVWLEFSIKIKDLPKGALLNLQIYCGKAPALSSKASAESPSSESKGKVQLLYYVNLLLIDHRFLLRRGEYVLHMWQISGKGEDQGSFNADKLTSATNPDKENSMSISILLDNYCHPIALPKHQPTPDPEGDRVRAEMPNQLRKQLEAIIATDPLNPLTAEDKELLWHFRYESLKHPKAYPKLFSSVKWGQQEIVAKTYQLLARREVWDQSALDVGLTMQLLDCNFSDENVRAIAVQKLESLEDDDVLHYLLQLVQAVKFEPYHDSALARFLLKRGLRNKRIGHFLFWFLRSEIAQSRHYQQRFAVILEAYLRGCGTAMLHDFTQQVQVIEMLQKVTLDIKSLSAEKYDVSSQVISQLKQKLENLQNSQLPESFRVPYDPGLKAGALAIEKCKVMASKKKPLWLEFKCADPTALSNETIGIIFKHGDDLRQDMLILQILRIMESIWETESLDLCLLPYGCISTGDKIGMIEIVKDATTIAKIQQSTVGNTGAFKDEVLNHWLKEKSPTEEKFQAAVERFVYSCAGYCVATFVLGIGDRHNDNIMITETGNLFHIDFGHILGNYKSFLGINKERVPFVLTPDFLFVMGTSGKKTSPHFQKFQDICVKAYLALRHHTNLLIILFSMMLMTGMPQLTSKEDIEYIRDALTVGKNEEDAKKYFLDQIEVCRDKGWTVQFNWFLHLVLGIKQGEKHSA
How it was run: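 Recombinant p120γ (8 nM, 2× stock) was preincubated with compound for 1 h at rt in HEPES pH 7.4, NaCl, MgCl2 and 0.05% BSA. Reaction was started with PIP2 (0.1 mg/ml, 2×) and ATP (50 μM, 2×) and ran 60 min at rt. ADP formed was read by ADP-Glo luminescence, and IC50 came from a 4-parameter fit.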

PI3Kγ = molecular target: T2, PI3Kγ (Homo sapiens, UniProt P48736); test: PI3Kγ cellular assay in THP-1 cells (AKT pS473 AlphaLISA); assay type: cell-based
T2 construct: host or cells: THP-1
T2 sequence (P48736 whole entry): as above
How it was run: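 Serum-starved THP-1 cells (1.8×10^5/well, serum-free DMEM) treated with compounds from 4 nM to 30 μM in 2% DMSO, then stimulated and lysed.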

[1] = Table 1, rhMCP-1 stimulated AKT pS473, read-out: cellular potency (PI3Kγ IC50)
[2] = Table 6, rhMCP-1 stimulated AKT pS473, read-out: cellular potency (PI3Kγ IC50)
[3] = Table 2, rhMCP-1 stimulated AKT pS473, read-out: cellular potency (PI3Kγ IC50)
[4] = Table 3, rhMCP-1 stimulated AKT pS473, read-out: cellular potency (PI3Kγ IC50)

C[C@@H](C1CC1)N1Cc2cc(-c3ccn4nc(N)c(C(=O)Nc5ccncc5)c4n3)cc(OC(F)(F)F)c2C1=O [Example 40, (S)-2-Amino-5-(2-(1-cyclopropylethyl)-1-oxo-7-(trifluoromethoxy)isoindolin-5-yl)-N-(pyridin-4-yl)pyrazolo[1,5-a]pyrimidine-3-carboxamide]
IC50 (PI3Kγ (p120γ); Table 1, p120γ): < 100 nM | IC50 (PI3Kγ; [1]): < 100 nM

C[C@@H](C1CC1)N1Cc2cc(-c3ccn4nc(N)c(C(=O)N[C@H]5CCC(=O)NC5)c4n3)cc(OC(F)(F)F)c2C1=O [Example 413]
IC50 (PI3Kγ (p120γ); Table 6, p120γ): < 100 nM | IC50 (PI3Kγ; [2]): 100 to 1000 nM

CNC(=O)c1c(N)nn2ccc(-c3cc4c(c(C(F)(F)F)c3)C(=O)N([C@@H](C)C3CC3)C4)nc12 [Example 67, 2-[(S)-1-Cyclopropylethyl]-5-[2-amino-3-(methylamino)carbonyl-1,4,7a-triaza-5-indenyl]-7-(trifluoromethyl)-1-isoindolinone]
IC50 (PI3Kγ (p120γ); Table 1, p120γ): < 100 nM | IC50 (PI3Kγ; [1]): < 100 nM

C[C@@H](C1CC1)N1Cc2cc(-c3ccn4nc(N)c(C(=O)N[C@H]5CC[C@](O)(C(F)(F)F)CC5)c4n3)cc(N3CC[C@@H](O)C3)c2C1=O [Example 153, 2-Amino-5-{2-[(1S)-1-cyclopropylethyl]-7-[(3R)-3-hydroxypyrrolidin-1-yl]-1-oxo-2,3-dihydro-1H-isoindol-5-yl}-N-[cis-4-hydroxy-4-(trifluoromethyl)cyclohexyl]pyrazolo[1,5-a]pyrimidine-3-carboxamide]
IC50 (PI3Kγ (p120γ); Table 1, p120γ): < 100 nM | IC50 (PI3Kγ; [1]): < 100 nM

Cc1cc(-c2ccn3nc(N)c(C(=O)NC4(C)COC4)c3n2)cc2c1C(=O)N(C(C)(C)CO)C2 [Example 314]
IC50 (PI3Kγ (p120γ); Table 2, p120γ): < 100 nM | IC50 (PI3Kγ; [3]): 100 to 1000 nM

C[C@@H](C1CC1)N1Cc2cc(-c3ccn4nc(N)c(C(=O)N[C@H]5CCC[C@@H](O)C5)c4n3)cc(OC(F)(F)F)c2C1=O [Example 29, 2-Amino-5-{2-[(1S)-1-cyclopropylethyl]-1-oxo-7-(trifluoromethoxy)-2,3-dihydro-1H-isoindol-5-yl}-N-[(1S,3R)-3-hydroxycyclohexyl]pyrazolo[1,5-a]pyrimidine-3-carboxamide]
IC50 (PI3Kγ (p120γ); Table 1, p120γ): < 100 nM | IC50 (PI3Kγ; [1]): < 100 nM

Cc1cc(-c2ccn3nc(N)c(C(=O)N[C@H]4CNC(=O)C4)c3n2)cc2c1C(=O)N([C@@H](C)C1CC1)C2 [Example 10, 2-Amino-5-{2-[(1S)-1-cyclopropylethyl]-7-methyl-1-oxo-2,3-dihydro-1H-isoindol-5-yl}-N-[(3R)-5-oxopyrrolidin-3-yl]pyrazolo[1,5-a]pyrimidine-3-carboxamide]
IC50 (PI3Kγ (p120γ); Table 1, p120γ): < 100 nM | IC50 (PI3Kγ; [1]): < 100 nM

C[C@@H](C1CC1)N1Cc2cc(-c3ccn4nc(N)c(C(=O)NCCCCO)c4n3)cc(C(F)(F)F)c2C1=O [Example 58, 2-[(S)-1-Cyclopropylethyl]-5-{2-amino-3-[(4-hydroxybutylamino)carbonyl]-1,4,7a-triaza-5-indenyl}-7-(trifluoromethyl)-1-isoindolinone]
IC50 (PI3Kγ (p120γ); Table 1, p120γ): < 100 nM | IC50 (PI3Kγ; [1]): < 100 nM

C[C@@H](C1CC1)N1Cc2cc(-c3ccn4nc(N)c(C(=O)NC5CC5)c4n3)cc(S(=O)(=O)C3CCC3)c2C1=O [Example 136, 2-Amino-5-[7-(cyclobutanesulfonyl)-2-[(1S)-1-cyclopropylethyl]-1-oxo-2,3-dihydro-1H-isoindol-5-yl]-N-cyclopropylpyrazolo[1,5-a]pyrimidine-3-carboxamide]
IC50 (PI3Kγ (p120γ); Table 1, p120γ): < 100 nM | IC50 (PI3Kγ; [1]): < 100 nM

Cc1cc(-c2ccn3nc(N)c(C(=O)NC(C)C)c3n2)cc2c1C(=O)N([C@@H](C)C1CC1)C2 [Example 252]
IC50 (PI3Kγ (p120γ); Table 2, p120γ): < 100 nM | IC50 (PI3Kγ; [3]): 100 to 1000 nM

C[C@@H](C1CC1)N1Cc2cc(-c3ccn4nc(N)c(C(=O)Nc5ccc(F)cc5)c4n3)cc(NS(C)(=O)=O)c2C1=O [Example 388]
IC50 (PI3Kγ (p120γ)): < 100 nM | IC50 (PI3Kγ; AKT pS473, read-out: cellular potency (PI3Kγ IC50)): 100 to 1000 nM

Cc1cc(-c2ccn3nc(N)c(C(=O)N[C@@H](CO)C4CC4)c3n2)cc2c1C(=O)N(C(C)(C)CO)C2 [Example 312]
IC50 (PI3Kγ (p120γ); Table 2, p120γ): < 100 nM | IC50 (PI3Kγ; [3]): 100 to 1000 nM

C[C@@H](C1CC1)N1Cc2cc(-c3ccn4nc(N)c(C(=O)NCCCS(C)(=O)=O)c4n3)cc(C(F)(F)F)c2C1=O [Example 336]
IC50 (PI3Kγ (p120γ); Table 3, p120γ): < 100 nM | IC50 (PI3Kγ; [4]): 100 to 1000 nM

C[C@H](CCO)NC(=O)c1c(N)nn2ccc(-c3cc4c(c(C(F)(F)F)c3)C(=O)N([C@@H](C)C3CC3)C4)nc12 [Example 57, 5-(3-{[(R)-3-Hydroxy-1-methylpropylamino]carbonyl}-2-amino-1,4,7a-triaza-5-indenyl)-2-[(S)-1-cyclopropylethyl]-7-(trifluoromethyl)-1-isoindolinone]
IC50 (PI3Kγ (p120γ); Table 1, p120γ): < 100 nM | IC50 (PI3Kγ; [1]): < 100 nM

C[C@@H](C1CC1)N1Cc2cc(-c3ccn4nc(N)c(C(=O)NC5CC5)c4n3)cc(C(C)(C)O)c2C1=O [Example 170, 2-Amino-N-cyclopropyl-5-{2-[(1S)-1-cyclopropylethyl]-7-(2-hydroxypropan-2-yl)-1-oxo-2,3-dihydro-1H-isoindol-5-yl}pyrazolo[1,5-a]pyrimidine-3-carboxamide]
IC50 (PI3Kγ (p120γ); Table 1, p120γ): < 100 nM | IC50 (PI3Kγ; [1]): < 100 nM

C[C@@H](C1CC1)N1Cc2cc(-c3ccn4nc(N)c(C(=O)Nc5ccnc(C#N)c5)c4n3)cc(C(F)(F)F)c2C1=O [Example 350]
IC50 (PI3Kγ (p120γ); Table 3, p120γ): < 100 nM | IC50 (PI3Kγ; [4]): 100 to 1000 nM

C[C@@H](C1CC1)N1Cc2cc(-c3ccn4nc(N)c(C(=O)N[C@H]5CC[C@H](N)CC5)c4n3)cc(C(F)(F)F)c2C1=O [Example 368]
IC50 (PI3Kγ (p120γ); Table 3, p120γ): < 100 nM | IC50 (PI3Kγ; [4]): 100 to 1000 nM

CC[C@H](N1Cc2cc(-c3ccn4nc(N)c(C(=O)N[C@H]5CC[C@](C)(O)CC5)c4n3)cc(NS(C)(=O)=O)c2C1=O)C(F)(F)F [Example 127, 2-Amino-5-{7-methanesulfonamido-1-oxo-2-[(2S)-1,1,1-trifluorobutan-2-yl]-2,3-dihydro-1H-isoindol-5-yl}-N-[trans-4-hydroxy-4-methylcyclohexyl]pyrazolo[1,5-a]pyrimidine-3-carboxamide]
IC50 (PI3Kγ (p120γ); Table 1, p120γ): < 100 nM | IC50 (PI3Kγ; [1]): < 100 nM

C[C@@H](C1CC1)N1Cc2cc(-c3ccn4nc(N)c(C(=O)NC[C@@H](O)CO)c4n3)cc(C(F)(F)F)c2C1=O [Example 344]
IC50 (PI3Kγ (p120γ); Table 3, p120γ): < 100 nM | IC50 (PI3Kγ; [4]): 100 to 1000 nM

C[C@@H](C1CC1)N1Cc2cc(-c3ccn4nc(N)c(C(=O)Nc5ccc(CO)cc5)c4n3)cc(NS(C)(=O)=O)c2C1=O [Example 105, 2-Amino-5-{2-[(1S)-1-cyclopropylethyl]-7-methanesulfonamido-1-oxo-2,3-dihydro-1H-isoindol-5-yl}-N-[4-(hydroxymethyl)phenyl]pyrazolo[1,5-a]pyrimidine-3-carboxamide]
IC50 (PI3Kγ (p120γ); Table 1, p120γ): < 100 nM | IC50 (PI3Kγ; [1]): < 100 nM

C[C@@H](C1CC1)N1Cc2cc(-c3ccn4nc(N)c(C(=O)N[C@@H]5CNC(=O)C5)c4n3)cc(O[C@@H]3CCOC3)c2C1=O [Example 443]
IC50 (PI3Kγ (p120γ); Table 6, p120γ): < 100 nM | IC50 (PI3Kγ; [2]): > 1000 nM

C[C@@H](C1CC1)N1Cc2cc(-c3ccn4nc(N)c(C(=O)Nc5cccnc5)c4n3)cc(N3CC[C@@H](O)C3)c2C1=O [Example 438]
IC50 (PI3Kγ (p120γ); Table 6, p120γ): < 100 nM | IC50 (PI3Kγ; [2]): 100 to 1000 nM

C[C@@H](C1CC1)N1Cc2cc(-c3ccn4nc(N)c(C(=O)N[C@@H]5CCC[C@H]5O)c4n3)cc(NS(C)(=O)=O)c2C1=O [Example 72, 2-Amino-5-{2-[(1S)-1-cyclopropylethyl]-7-methanesulfonamido-1-oxo-2,3-dihydro-1H-isoindol-5-yl}-N-[(1R,2R)-2-hydroxycyclopentyl]pyrazolo[1,5-a]pyrimidine-3-carboxamide]
IC50 (PI3Kγ (p120γ); Table 1, p120γ): < 100 nM | IC50 (PI3Kγ; [1]): < 100 nM

C[C@@H](C1CC1)N1Cc2cc(-c3ccn4nc(N)c(C(=O)N[C@H]5C[C@](C)(O)C5)c4n3)cc(S(C)(=O)=O)c2C1=O [Example 444]
IC50 (PI3Kγ (p120γ); Table 6, p120γ): < 100 nM | IC50 (PI3Kγ; [2]): 100 to 1000 nM

Cc1cc(-c2ccn3nc(N)c(C(=O)N[C@H]4CCCC[C@@H]4O)c3n2)cc2c1C(=O)N([C@@H](C)C1CC1)C2 [Example 254]
IC50 (PI3Kγ (p120γ); Table 2, p120γ): < 100 nM | IC50 (PI3Kγ; [3]): 100 to 1000 nM

Cc1cc(-c2ccn3nc(N)c(C(=O)NC(C)CO)c3n2)cc2c1C(=O)N([C@@H]1CCC[C@H](O)C1)C2 (some centres unmarked) [Example 326]
IC50 (PI3Kγ (p120γ); Table 2, p120γ): < 100 nM | IC50 (PI3Kγ; [3]): > 1000 nM

Cc1cc(-c2ccn3nc(N)c(C(=O)N[C@@H]4CC[C@@H](O)C4)c3n2)cc2c1C(=O)N([C@@H](C)C1CC1)C2 [Example 5, 2-Amino-5-{2-[(1S)-1-cyclopropylethyl]-7-methyl-1-oxo-2,3-dihydro-1H-isoindol-5-yl}-N-[(1R,3R)-3-hydroxycyclopentyl]pyrazolo[1,5-a]pyrimidine-3-carboxamide]
IC50 (PI3Kγ (p120γ); Table 1, p120γ): < 100 nM | IC50 (PI3Kγ; [1]): < 100 nM

C[C@H](N1Cc2cc(-c3ccn4nc(N)c(C(=O)NC5COC5)c4n3)cc(NS(C)(=O)=O)c2C1=O)C(F)(F)F [Example 116, 2-Amino-5-{7-methanesulfonamido-1-oxo-2-[(2S)-1,1,1-trifluoropropan-2-yl]-2,3-dihydro-1H-isoindol-5-yl}-N-(oxetan-3-yl)pyrazolo[1,5-a]pyrimidine-3-carboxamide]
IC50 (PI3Kγ (p120γ); Table 1, p120γ): < 100 nM | IC50 (PI3Kγ; [1]): < 100 nM

Cc1cc(-c2ccn3nc(N)c(C(=O)N[C@@H](C)c4ccccc4F)c3n2)cc2c1C(=O)N(C(C)(C)CO)C2 [Example 313]
IC50 (PI3Kγ (p120γ); Table 2, p120γ): < 100 nM | IC50 (PI3Kγ; [3]): 100 to 1000 nM

C[C@@H](C1CC1)N1Cc2cc(-c3ccn4nc(N)c(C(=O)N[C@H]5C[C@](C)(O)C5)c4n3)cc(OC(F)F)c2C1=O [Example 430]
IC50 (PI3Kγ (p120γ); Table 6, p120γ): < 100 nM | IC50 (PI3Kγ; [2]): < 100 nM

Cc1cc(-c2ccn3nc(N)c(C(=O)NC(C)C(N)=O)c3n2)cc2c1C(=O)N([C@@H](C)C1CC1)C2 (some centres unmarked) [Example 224]
IC50 (PI3Kγ (p120γ); Table 2, p120γ): < 100 nM | IC50 (PI3Kγ; [3]): 100 to 1000 nM
